# Measured values reported in US20180193391A1, “INDUCTION OF LAMINA PROPRIA REGULATORY T CELLS” (President and Fellows of Harvard College, priority 2015, published 2018).
# B1: IL-33: recombinant mouse IL-33 (BioLegend); alarmin (protein, UniProt Q8BVZ5 1-266, looked up)
# Interleukin-33: MRPRMKYSNSKISPAKFSSTAGEALVPPCKIRRSQQKTKEFCHVYCMRLRSGLTIRKETSYFRKEPTKRYSLKSGTKHEENFSAYPRDSRKRSLLGSIQAFAASVDTLSIQGTSLLTQSPASLSTYNDQSVSFVLENGCYVINVDDSGKDQEQDQVLLRYYESPCPASQSGDGVDGKKLMVNMSPIKDTDIWLHANDKDYSVELQRGDVSPPEQAFFVLHKKSSDFVSFECKNLPGTYIGVKDNQLALVEEKDESCNNIMFKLSKI
# What was measured:
# [1] = test system: colonic Rorγ^+ Tregs; experiment: Mono-colonization of germ free mice with single bacterial species; colonic Rorγ+ Tregs by flow cytometry; type: in vivo, Germfree C57BL/6J mice
# Procedure: A panel of bacterial species selected from the microbiota of the human gastrointestinal tract were tested for their ability to induce the production of Rorγ^+ Tregs. Bacteria were obtained from the ATCC, BEI Resources, or the German Collection of Microorganisms and Cell Cultures (DSMZ), or from the laboratory collections at Harvard Medical School. Anaerobic bacteria were cultured under strictly anaerobic conditions (80% N2, 10% H2, 10% CO2) at 37° C. in an anaerobic chamber.
# Germfree C57BL/6J were maintained in sterile isolators, and were inoculated by gavage with single bacterial species at 4 weeks of age, then housed in gnobiotic isolators. After 2 weeks, mice were sacrificed, colon tissue was harvested, cleaned of luminal content and treated with RPMI containing 1 mM DTT, 20 mM EDTA and 2% FBS at 37° C. for 15 min to remove epithelial cells. The colon tissue was then minced and dissociated in collagenase solution (1.5 mg/ml collagenase II (Gibco), 0.5 mg/ml dispase and 1% FBS in RPMI) with constantly stirring at 37° C. for 45 min. […] Cells were analyzed with a BD LSRII flow cytometer, and data analysis was performed with FlowJo (Tree Star) software. The proportion of Rorγ^+ Tregs was determined within the total population of CD4^+FoxP3^+ Treg cells, and the significance of the difference relative to unmanipulated germfree mice determined using a two-tailed Student's T-test. […]
# [2] = test system: Rorγ^+ Tregs; experiment: IL-33 administration to mice; response of Rorγ+ Tregs; type: in vivo; details: recombinant mouse IL-33 i.p.
# Procedure: Mice were bred in a pathogen-free facility or in germ-free isolators. For IL-33 administration, recombinant mouse IL-33 (BioLegend) was administered i.p. at 2 μg/injection every other day for 7 days.
Molecule,"induction of production of Rorγ^+Helios^− LP Tregs ([1]; germ free mice colonized with single bacterial species for 2 weeks, FIGS. 4D, 4E and 5)","ability to promote colonic Treg production (proportions) ([1]; within the Bacteroides genus, mono-colonized germ free mice)",response of Rorγ^+ Tregs to IL-33 [2]
Bacteroides fragilis,capable of inducing production,low,–
B1,–,–,do not respond
